Test systems include TK-10 renal; PC-3 prostate; SF-268 CNS; CAKI-1 renal; UO-31 renal; OVCAR-3 ovarian; LOX IMVI melanoma; MCF7 breast; CCRF-CEM leukemia; SK-OV-3 ovarian; 786-0 renal; T-47D breast; SR leukemia.
Holding throughout (test): DTP human tumour cell line panel, 48 h

As usually defined, the TGI is the concentration giving total growth inhibition. Low values mean greater sensitivity of the cells, high ones lower sensitivity of the cells. The GI50 is the concentration giving 50% growth inhibition.

Structures are written as SMILES. “And” between values parts separate entries of the source, which are not always exact repeats. Equal values may be shown once.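 Cultured in 96-well plates, cells were exposed to test compound for 48 hours across five concentrations. Abbreviation: GI50, concentration required for 50% inhibition of growth. TGI: concentration producing complete growth inhibition.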 Some results are limits rather than exact numbers.

For the compound `COc1ccc2c(c1)c1c(n2CCN(C)C)-c2ccccc2CC1`, the total growth inhibition concentration (TGI) in the assay with TK-10 renal turned out to be 29.8 µM; with PC-3 prostate it was 25.2 µM; with SF-268 CNS, 32.7 µM; with CAKI-1 renal, 27.6 µM; in the assay on UO-31 renal it was 26.4 µM; in the assay on OVCAR-3 ovarian it was 30.9 µM. The TGI in the assay on LOX IMVI melanoma was determined as 33.5 µM; in the assay on MCF7 breast, 35.1 µM; in the assay with CCRF-CEM leukemia it was 38.6 µM; with SK-OV-3 ovarian, 34.4 µM; in the assay with 786-0 renal it was 30.4 µM; in the assay on T-47D breast, 31.5 µM.

As for `O=[N+]([O-])c1cccc2nc3ccccc3c(NCCCNc3c4ccccc4nc4cccc([N+](=O)[O-])c34)c12`, the TGI was less than 0.01 µM in the assay on TK-10 renal; 0.143 µM in the assay with PC-3 prostate; 0.0387 µM in the assay with SF-268 CNS; 0.118 µM with CAKI-1 renal; 0.143 µM in the assay on UO-31 renal; 0.0906 µM in the assay on OVCAR-3 ovarian. The TGI is greater than 100 µM in the assay with LOX IMVI melanoma; 0.162 µM in the assay with CCRF-CEM leukemia; 1.59 µM with SK-OV-3 ovarian; less than 0.01 µM with 786-0 renal; 0.407 µM in the assay with T-47D breast.

On to `O=CNCNCCO`, for which the TGI in the assay on TK-10 renal, in the assay with SF-268 CNS, in the assay with CAKI-1 renal, in the assay with UO-31 renal, in the assay on OVCAR-3 ovarian and with MCF7 breast was greater than 100 µM each time. The TGI in the assay on SR leukemia, in the assay on CCRF-CEM leukemia, with SK-OV-3 ovarian, in the assay with 786-0 renal and in the assay on T-47D breast was greater than 100 µM throughout.

For the compound `CCN(CC)c1ccc2c(c1)Oc1ccc(N(CC)CC)cc1C21Oc2ccccc2-c2c1c1ccccc1n2CC` (centres undefined), the TGI in the assay on SF-268 CNS was greater than 100 µM; in the assay with CAKI-1 renal, greater than 100 µM; in the assay on UO-31 renal, 63.2 µM; with OVCAR-3 ovarian, greater than 100 µM; in the assay with LOX IMVI melanoma, greater than 100 µM; in the assay with SR leukemia, greater than 100 µM. The TGI in the assay on CCRF-CEM leukemia, in the assay on SK-OV-3 ovarian and in the assay on 786-0 renal was greater than 100 µM in each case.

For `CC(C)(C)C1=CC(C)(n2[nH]c(=O)n(-c3ccccc3)c2=O)C=C(C(C)(C)C)C1=O`, the TGI in the assay on TK-10 renal, with PC-3 prostate, in the assay with SF-268 CNS, in the assay on CAKI-1 renal, in the assay on UO-31 renal and with LOX IMVI melanoma was greater than 100 µM throughout. The TGI in the assay on MCF7 breast, with SK-OV-3 ovarian, in the assay on 786-0 renal and with T-47D breast was greater than 100 µM throughout.

Regarding `O=C(CCC1C(=O)NC(=S)NC1=O)c1ccc2ccccc2c1`, the TGI with TK-10 renal, in the assay with SF-268 CNS, in the assay with CAKI-1 renal, in the assay on UO-31 renal, in the assay on OVCAR-3 ovarian and in the assay on LOX IMVI melanoma was greater than 100 µM in each case. Further, the TGI in the assay on SR leukemia, in the assay with CCRF-CEM leukemia, in the assay with SK-OV-3 ovarian and in the assay with 786-0 renal was greater than 100 µM each time.

On to `NS(=O)(=O)c1nnc(NS(=O)(=O)C(F)(F)F)s1`, for which the TGI in the assay on TK-10 renal, in the assay with PC-3 prostate, with SF-268 CNS, in the assay on CAKI-1 renal, in the assay on UO-31 renal and in the assay on OVCAR-3 ovarian was greater than 100 µM each time. For the same compound, the TGI in the assay with MCF7 breast, with SR leukemia, in the assay on SK-OV-3 ovarian and with 786-0 renal was greater than 100 µM throughout.

`COC(=O)C(CCSC)NC(=O)CNC(=O)CSc1nnc(COc2ccc(Cl)cc2)n1-c1ccccc1` (centres undefined): the TGI with TK-10 renal is 31.4 µM; in the assay with PC-3 prostate it was 30.2 µM; with SF-268 CNS, 32.7 µM; in the assay with UO-31 renal, 22.1 µM; in the assay with LOX IMVI melanoma, 23.8 µM; with MCF7 breast, 39.6 µM. Also, the TGI with CCRF-CEM leukemia was determined as 26.1 µM; in the assay on SK-OV-3 ovarian, 34 µM; in the assay on 786-0 renal it was 29.5 µM; in the assay on T-47D breast, 54.7 µM.

`COc1cc(O)c2c(=O)c(O)c(-c3ccc(O)c(OC)c3)oc2c1`: the concentration for total growth inhibition (TGI) with TK-10 renal, in the assay on PC-3 prostate, in the assay with SF-268 CNS, in the assay with CAKI-1 renal, in the assay on OVCAR-3 ovarian and in the assay on LOX IMVI melanoma was greater than 100 µM throughout. Besides, the TGI was greater than 100 µM in the assay with MCF7 breast, greater than 21.9 µM in the assay with CCRF-CEM leukemia, greater than 100 µM in the assay with 786-0 renal and greater than 100 µM in the assay with T-47D breast.

With `CC1(C)CNCC(C)(OCc2ccccc2)C(=O)NC(C)(C)CNCC(C)(OCc2ccccc2)C(=O)N1` (centres undefined), the TGI in the assay on TK-10 renal, with PC-3 prostate, with SF-268 CNS, with UO-31 renal, in the assay with OVCAR-3 ovarian and with LOX IMVI melanoma was greater than 10 µM in each case. For the same compound, the TGI in the assay with MCF7 breast, in the assay with CCRF-CEM leukemia, in the assay on SK-OV-3 ovarian, with 786-0 renal and with T-47D breast was greater than 10 µM in each case.

`O=[N+]([O-])c1ccc(OC2CC3C4C=CC3C2C4)c([N+](=O)[O-])c1` (centres undefined): the TGI in the assay with TK-10 renal, in the assay with PC-3 prostate, with SF-268 CNS, in the assay on CAKI-1 renal, in the assay on UO-31 renal and in the assay on OVCAR-3 ovarian was greater than 100 µM in each case. In addition, the TGI with LOX IMVI melanoma, with MCF7 breast, in the assay with CCRF-CEM leukemia, in the assay on SK-OV-3 ovarian, in the assay with 786-0 renal and in the assay with T-47D breast was greater than 100 µM throughout. The GI50 was greater than 100 µM in the assay on PC-3 prostate; greater than 100 µM in the assay with SF-268 CNS; greater than 100 µM with UO-31 renal; greater than 100 µM in the assay with LOX IMVI melanoma; > 100 µM and 24 µM in the assay with CCRF-CEM leukemia; 68.5 µM and > 31.6 µM with SK-OV-3 ovarian. The GI50 in the assay with T-47D breast is greater than 100 µM.

On to `CC(=O)C1=CN=C2C(=O)N(c3ccccc3)N(C)C12C` (centres undefined), for which the TGI in the assay with TK-10 renal, with PC-3 prostate, in the assay with CAKI-1 renal, in the assay with UO-31 renal, in the assay with OVCAR-3 ovarian and with LOX IMVI melanoma was greater than 100 µM throughout. Also, the TGI with MCF7 breast, in the assay with SR leukemia, in the assay on CCRF-CEM leukemia, in the assay with SK-OV-3 ovarian and in the assay with 786-0 renal was greater than 100 µM in each case.

(Values after PubChem BioAssay (NCI).)
